The conditions of series [1]: Crystal; DTA.
Series [2] in a line: Molar enthalpy of transition or fusion. Conditions: Metastable crystal; DSC.

Experimental findings from the NIST ThermoML archive (doi:10.1016/j.fluid.2009.09.013) are described below.

Numbers after ± are expanded uncertainties.

With `CC(C)(C)c1cc(CCC(=O)OCC(COC(=O)CCc2cc(C(C)(C)C)c(O)c(C(C)(C)C)c2)(COC(=O)CCc2cc(C(C)(C)C)c(O)c(C(C)(C)C)c2)COC(=O)CCc2cc(C(C)(C)C)c(O)c(C(C)(C)C)c2)cc(C(C)(C)C)c1O`, the Normal melting temperature in series [1] is 112.60 ± 0.5 °C. Besides, the “Molar enthalpy of transition or fusion” value in series [2] is 15.8 ± 0.43 kcal/mol.
